Test results taken from patent US7176313B2, “Anti acid-fast bacterial agent containing pyridonecarboxylic acids as active ingredient” (Daiichi Pharmaceutical Co., Ltd., priority 2000, dated 2007).
Values after ≈ are worked out from the molar mass of the structure shown.

Test system: RFP-resistant M. tuberculosis
Assay: microbe, parasite or virus in culture
Format: cell-based, Mycobacterium tuberculosis
[1] = Mycobacterium tuberculosis, RFP-resistant M. tuberculosis No. 44, Table 8 (series 2)
[2] = Mycobacterium tuberculosis, RFP-resistant M. tuberculosis No. 45, Table 8 (series 2)
[3] = Mycobacterium tuberculosis, RFP-resistant M. tuberculosis No. 50, Table 8 (series 2)
[4] = Mycobacterium tuberculosis, RFP-resistant M. tuberculosis No. 51, Table 8 (series 2)
[5] = Mycobacterium tuberculosis, RFP-resistant M. tuberculosis No. 56, Table 8 (series 2)
[6] = Mycobacterium tuberculosis, RFP-resistant M. tuberculosis No. 71, Table 8 (series 2)
[7] = Mycobacterium tuberculosis, RFP-resistant M. tuberculosis No. 97, Table 8 (series 2)
[8] = RFP-resistant M. tuberculosis No. 44, Table 8 (series 2)
[9] = RFP-resistant M. tuberculosis No. 45, Table 8 (series 2)
[10] = RFP-resistant M. tuberculosis No. 50, Table 8 (series 2)
[11] = RFP-resistant M. tuberculosis No. 51, Table 8 (series 2)
[12] = RFP-resistant M. tuberculosis No. 56, Table 8 (series 2)
[13] = RFP-resistant M. tuberculosis No. 71, Table 8 (series 2)
[14] = RFP-resistant M. tuberculosis No. 97, Table 8 (series 2)
[15] = RFP-resistant M. tuberculosis No. 44, Table 7
[16] = RFP-resistant M. tuberculosis No. 50, Table 7
[17] = Mycobacterium tuberculosis, RFP-resistant M. tuberculosis No. 44, Table 7
[18] = Mycobacterium tuberculosis, RFP-resistant M. tuberculosis No. 45, Table 7
[19] = Mycobacterium tuberculosis, RFP-resistant M. tuberculosis No. 47, Table 7
[20] = Mycobacterium tuberculosis, RFP-resistant M. tuberculosis No. 50, Table 7
[21] = Mycobacterium tuberculosis, RFP-resistant M. tuberculosis No. 56, Table 7
[22] = Mycobacterium tuberculosis, RFP-resistant M. tuberculosis No. 71, Table 7
[23] = Mycobacterium tuberculosis, RFP-resistant M. tuberculosis No. 97, Table 7

| Structure (SMILES) | MIC [1] [mg/L] | MIC [2] [mg/L] | MIC [3] [mg/L] | MIC [4] [mg/L] | MIC [5] [mg/L] | MIC [6] [mg/L] | MIC [7] [mg/L] | further results |
| --- | --- | --- | --- | --- | --- | --- | --- | --- |
| COc1c(N2CCN3CCC2C3)c(F)cc2c(=O)c(C(=O)O)cn([C@@H]3C[C@@H]3F)c12 (stereo partly drawn) [Compd. 28, 7-{1,4-Diazabicyclo[3.2.1]octan-4-yl}-6-fluoro-1-[(1R,2S)-2-fluorocyclopropyl]-1,4-dihydro-8-methoxy-4-oxoquinoline-3-carboxylic acid] | 0.2 (≈ 0.493 µM) | 3.13 (≈ 7.72 µM) | 0.2 (≈ 0.493 µM) | 0.78 (≈ 1.92 µM) | 12.5 (≈ 30.8 µM) | 1.56 (≈ 3.85 µM) | 1.56 (≈ 3.85 µM) | – |
| COc1c(N2CCN[C@@H](c3ccccc3)C2)c(F)cc2c(=O)c(C(=O)O)cn([C@@H]3C[C@@H]3F)c12.Cl [Compd. 26] | – | – | – | – | – | – | – | MIC [8]: 0.1 mg/L; MIC [9]: 1.56 mg/L; MIC [10]: 0.1 mg/L; MIC [11]: 0.2 mg/L; MIC [12]: 12.5 mg/L; MIC [13]: 0.78 mg/L; MIC [14]: 0.78 mg/L |
| COc1c(C2CNC3(CCC3)CN2)c(F)cc2c(=O)c(C(=O)O)cn([C@@H]3C[C@@H]3F)c12 (stereo partly drawn) [Compd. 23, 7-{5,8-Diazaspiro[3.5]nonan-7-yl}-6-fluoro-1-[(1R,2S)-2-fluorocyclopropyl]-1,4-dihydro-8-methoxy-4-oxoquinoline-3-carboxylic acid] | 1.56 (≈ 3.72 µM) | 25 (≈ 59.6 µM) | 1.56 (≈ 3.72 µM) | 6.25 (≈ 14.9 µM) | 100 (≈ 238 µM) | 12.5 (≈ 29.8 µM) | 12.5 (≈ 29.8 µM) | – |
| COc1c(N2C[C@@H](C)N[C@@H](C)C2)c(F)cc2c(=O)c(C(=O)O)cn([C@@H]3C[C@@H]3F)c12 [Compd. 16, 7-(3,5-cis-Dimethylpiperazin-1-yl)-6-fluoro-1-[2-(S)-fluoro-1-(R)-cyclopropyl]-1,4-dihydro-8-methoxy-4-oxoquinoline-3-carboxylic acid] | 0.25 (≈ 0.614 µM) | 4 (≈ 9.82 µM) | 0.12 (≈ 0.295 µM) | 0.5 (≈ 1.23 µM) | 64 (≈ 157 µM) | 0.5 (≈ 1.23 µM) | 1 (≈ 2.45 µM) | MIC (Mycobacterium tuberculosis, RFP-resistant M. tuberculosis No. 47, Table 8 (series 2)): 0.5 mg/L (≈ 1.23 µM) |
| C[C@H]1COc2c(N3CCN[C@@H](c4ccccc4)C3)c(F)cc3c(=O)c(C(=O)O)cn1c23 [Compd. 27, 9-Fluoro-2,3-dihydro-3-(S)-methyl-7-oxo-10-[3-(S)-phenyl-1-piperazinyl]-7H-pyrido[1.2.3-de][1,4]benzoxazine-6-carboxylic acid] | – | – | – | – | – | – | – | MIC [8]: 0.1 mg/L (≈ 0.236 µM); MIC [9]: 1.56 mg/L (≈ 3.68 µM); MIC [10]: 0.1 mg/L (≈ 0.236 µM); MIC [11]: 0.2 mg/L (≈ 0.472 µM); MIC [12]: 6.25 mg/L (≈ 14.8 µM); MIC [13]: 0.39 mg/L (≈ 0.921 µM); MIC [14]: 0.78 mg/L (≈ 1.84 µM) |
| COc1c(N2CCNC(CF)(CF)C2)c(F)cc2c(=O)c(C(=O)O)cn([C@@H]3C[C@@H]3F)c12 [Compd. 20, 6-Fluoro-1-[(1R,2S)-2-fluorocyclopropyl]-7-(3,3′-difluoromethylpiperazin-1-yl)-1,4-dihydro-8-methoxy-4-oxoquinoline-3-carboxylic acid] | 0.39 (≈ 0.88 µM) | 6.25 (≈ 14.1 µM) | 0.39 (≈ 0.88 µM) | 0.78 (≈ 1.76 µM) | 50 (≈ 113 µM) | 1.56 (≈ 3.52 µM) | 1.56 (≈ 3.52 µM) | – |
| C[C@H]1COc2c(N3CC(N)C4(CC4)C3)c(F)cc3c(=O)c(C(=O)O)cn1c23 (stereo partly drawn) [Compd. 14] | – | – | – | – | – | – | – | MIC [15]: 0.78 mg/L (≈ 2.09 µM); MIC [16]: 0.39 mg/L (≈ 1.04 µM) |
| COc1c(N2CCN(C)CC2)c(F)cc2c(=O)c(C(=O)O)cn([C@@H]3C[C@@H]3F)c12 [Compd. 15, 6-Fluoro-1-[2-(S)-fluoro-1-(R)-cyclopropyl]-1,4-dihydro-8-methoxy-7-(4-methylpiperazin-1-yl)-4-oxoquinoline-3-carboxylic acid] | – | – | – | – | – | – | – | MIC [17]: 0.2 mg/L (≈ 0.508 µM); MIC [18]: 1.56 mg/L (≈ 3.97 µM); MIC [19]: 0.39 mg/L (≈ 0.991 µM); MIC [20]: 0.2 mg/L (≈ 0.508 µM); MIC [21]: 6.25 mg/L (≈ 15.9 µM); MIC [22]: 0.39 mg/L (≈ 0.991 µM); MIC [23]: 1.56 mg/L (≈ 3.97 µM) |
| COCC1CN(c2c(F)cc3c(=O)c(C(=O)O)cn([C@@H]4C[C@@H]4F)c3c2OC)CCN1 (stereo partly drawn) [Compd. 21, 6-Fluoro-1-[(1R,2S)-2-fluorocyclopropyl]-1,4-dihydro-8-methoxy-7-(3-methoxymethylpiperazin-1-yl)-4-oxoquinoline-3-carboxylic acid] | 0.39 (≈ 0.921 µM) | 3.13 (≈ 7.39 µM) | 0.39 (≈ 0.921 µM) | 0.78 (≈ 1.84 µM) | 25 (≈ 59 µM) | 1.56 (≈ 3.68 µM) | 1.56 (≈ 3.68 µM) | – |
| COc1c(N2CCNC(C3CC3)C2)c(F)cc2c(=O)c(C(=O)O)cn([C@@H]3C[C@@H]3F)c12 (stereo partly drawn) [Compd. 24, 7-(3-Cyclopropylpiperazin-1-yl)-6-fluoro-1-[(1R,2S)-2-fluorocyclopropyl]-1,4-dihydro-8-methoxy-4-oxoquinoline-3-carboxylic acid] | 0.78 (≈ 1.86 µM) | 12.5 (≈ 29.8 µM) | 0.39 (≈ 0.93 µM) | 1.56 (≈ 3.72 µM) | 50 (≈ 119 µM) | 3.13 (≈ 7.46 µM) | 3.13 (≈ 7.46 µM) | – |
| COc1c(N2CCNC(CF)C2)c(F)cc2c(=O)c(C(=O)O)cn([C@@H]3C[C@@H]3F)c12 (stereo partly drawn) [Compd. 19, 6-Fluoro-1-[(1R,2S)-2-fluorocyclopropyl]-7-(3-fluoromethylpiperazin-1-yl)-1,4-dihydro-8-methoxy-4-oxoquinoline-3-carboxylic acid] | 0.39 (≈ 0.948 µM) | 3.13 (≈ 7.61 µM) | 0.2 (≈ 0.486 µM) | 0.78 (≈ 1.9 µM) | 50 (≈ 122 µM) | 1.56 (≈ 3.79 µM) | 1.56 (≈ 3.79 µM) | – |
| CO[C@H]1/C=C/O[C@@]2(C)Oc3c(C)c(O)c4c(O)c(c(/C=N/N5CCN(C)CC5)c(O)c4c3C2=O)NC(=O)/C(C)=C\C=C\[C@H](C)[C@H](O)[C@@H](C)[C@@H](O)[C@@H](C)[C@H](OC(C)=O)[C@@H]1C [RFP, rifampicin, reference compound] | – | – | – | – | – | – | – | MIC [17]: > 100 mg/L; MIC [18]: > 100 mg/L; MIC [19]: > 100 mg/L; MIC [20]: > 100 mg/L; MIC (Mycobacterium tuberculosis, RFP-resistant M. tuberculosis No. 51, Table 7): > 100 mg/L; MIC [21]: > 100 mg/L; MIC [22]: > 100 mg/L; MIC [23]: > 100 mg/L |
| COc1c(N2CCNC3(CC3)C2)c(F)cc2c(=O)c(C(=O)O)cn([C@@H]3C[C@@H]3F)c12 [Compd. 22, 7-{4,7-Diazaspiro[2.5]octan-7-yl}-6-fluoro-1-[(1R,2S)-2-fluorocyclopropyl]-1,4-dihydro-8-methoxy-4-oxoquinoline-3-carboxylic acid] | 0.78 (≈ 1.92 µM) | 25 (≈ 61.7 µM) | 0.78 (≈ 1.92 µM) | 1.56 (≈ 3.85 µM) | 100 (≈ 247 µM) | 3.13 (≈ 7.72 µM) | 6.25 (≈ 15.4 µM) | – |
| CC1COc2c(N3CCN(C)CC3)c(F)cc3c(=O)c(C(=O)O)cn1c23 (stereo not drawn) [OFLX, OFLOXAIN, reference compound] | – | – | – | – | – | – | – | MIC [15]: 1.56 mg/L (≈ 4.32 µM); MIC [8]: 2.0 mg/L (≈ 5.53 µM); MIC (RFP-resistant M. tuberculosis No. 45, Table 7): 25 mg/L (≈ 69.2 µM); MIC [9]: 3.20 mg/L (≈ 8.86 µM); MIC (RFP-resistant M. tuberculosis No. 47, Table 8 (series 2)): 8.0 mg/L (≈ 22.1 µM); MIC [16]: 0.78 mg/L (≈ 2.16 µM); MIC [10]: 1.0 mg/L (≈ 2.77 µM); MIC [11]: 4.0 mg/L (≈ 11.1 µM); MIC [12]: 16 mg/L (≈ 44.3 µM); MIC [13]: 4.0 mg/L (≈ 11.1 µM); MIC [14]: 16 mg/L (≈ 44.3 µM) |
